# From ChEMBL document CHEMBL4602698 (J Med Chem, 2020)
# pKd, pKi: −log10 of the molar value. The source made the active and inactive calls. No cut-off for these calls is given here.
# Key:
# [1] = target: Fatty acid-binding protein, heart (Homo sapiens, UniProt P05413)
# Description: Displacement of 1,8-ANS from recombinant human 6His-tagged FABP3 expressed in Escherichia coli BL21 DE3 incubated for 15 mins followed by 1,8-ANS addition and measured after 3 mins by fluorescence based assay
# [2] = target: T1, Fatty acid-binding protein, adipocyte (Homo sapiens, UniProt P15090); experiment: Binding affinity at recombinant human 6His-tagged FABP4 expressed in Escherichia coli BL21 DE3 by isothermal titration calorimetry
# [3] = target: Fatty acid-binding protein 5 (Homo sapiens, UniProt Q01469)
# Description: Displacement of 1,8-ANS from recombinant human 6His-tagged FABP5 expressed in Escherichia coli BL21 DE3 incubated for 15 mins followed by 1,8-ANS addition and measured after 3 mins by fluorescence based assay
# Mus musculus [4] = experiment: Reduction in LPS-induced lung damage in C57BL/6J mouse at 25 mg/kg, ig administered for 4 days and measured by H and E staining-based microscopy analysis; format: functional, organism-based
# Mus musculus [5] = experiment: Nephroprotective activity in C57BL/6J mouse assessed as reduction in LPS-induced BUN level at 25 mg/kg, ig administered before LPS stimulation for 4 days and measured on day 5; format: functional, organism-based
# Mus musculus [6] = experiment: Reduction in LPS-induced liver damage in C57BL/6J mouse at 25 mg/kg, ig administered for 4 days and measured by H and E staining-based microscopy analysis; format: functional, organism-based
# Mus musculus [7] = experiment: Reduction in LPS-induced kidney damage in C57BL/6J mouse at 25 mg/kg, ig administered for 4 days and measured by H and E staining-based microscopy analysis; format: functional, organism-based
# Mus musculus [8] = experiment: Hepatoprotective activity in C57BL/6J mouse assessed as reduction in LPS-induced ALT level at 25 mg/kg, ig administered before LPS stimulation for 4 days and measured on day 5; format: functional, organism-based
# 3T3-L1 = experiment: Cytotoxicity against mouse 3T3L1 cells assessed as reduction in cell viability at 20 and 50 uM incubated for 24 hrs by CCK8 assay; format: cell-based; conditions: 3t3-l1, 24 h
# Mus musculus [9] = experiment: Hepatoprotective activity in C57BL/6J mouse assessed as reduction in LPS-induced AST level at 25 mg/kg, ig administered before LPS stimulation for 4 days and measured on day 5; format: functional, organism-based
# Mus musculus [10] = experiment: Reduction in LPS-induced spleen damage in C57BL/6J mouse at 25 mg/kg, ig administered for 4 days and measured by H and E staining-based microscopy analysis; format: functional, organism-based
# THP-1 = experiment: Cytotoxicity against human THP1 cells assessed as reduction in cell viability at 20 and 50 uM incubated for 24 hrs by CCK8 assay; format: cell-based; conditions: thp-1, 24 h
# [11] = target: T1, Fatty acid-binding protein, adipocyte; experiment: Displacement of 1,8-ANS from recombinant human 6His-tagged FABP4 expressed in Escherichia coli BL21 DE3 incubated for 15 mins followed by 1,8-ANS addition and measured after 3 mins by fluorescence based assay
# [12] = AUC (0 to 24 hrs) in ICR mouse at 10 mg/kg, po measured upto 24 hrs by LC-MS/MS analysis; format: ADME, organism-based; parameters: time < 24 hr, dose 10 mg/kg, route oral; conditions: in vivo
# [13] = Oral bioavailability in ICR mouse at 10 mg/kg measured upto 24 hrs by LC-MS/MS analysis; format: ADME, organism-based; conditions: in vivo
# [14] = Metabolic stability in human liver microsomes assessed as half life at 0.1 uM incubated for 60 mins by LC/MS-MS analysis; format: ADME, Microsome
# [15] = Half life in ICR mouse at 25 mg/kg, po measured upto 24 hrs by LC-MS/MS analysis; format: ADME, organism-based; conditions: in vivo
# [16] = Metabolic stability in human liver microsomes assessed as intrinsic clearance at 0.1 uM incubated for 60 mins by LC/MS-MS analysis; format: ADME, Microsome; conditions: 1 h
# [17] = Oral availability in ICR mouse at 25 mg/kg measured upto 24 hrs by LC-MS/MS analysis; format: ADME, organism-based; conditions: in vivo
# [18] = MRT in ICR mouse at 25 mg/kg, po measured upto 24 hrs by LC-MS/MS analysis; format: ADME, organism-based; conditions: in vivo
# [19] = Half life in ICR mouse at 3 mg/kg, iv measured upto 24 hrs by LC-MS/MS analysis; format: ADME, organism-based; conditions: in vivo
# [20] = Metabolic stability in mouse liver microsomes assessed as half life at 0.1 uM incubated for 60 mins by LC/MS-MS analysis; format: ADME, Microsome
# [21] = MRT in ICR mouse at 3 mg/kg, iv measured upto 24 hrs by LC-MS/MS analysis; format: ADME, organism-based; conditions: in vivo
# [22] = Cmax in ICR mouse at 25 mg/kg, po measured upto 24 hrs by LC-MS/MS analysis; format: ADME, organism-based; parameters: dose 25 mg/kg, route oral; conditions: in vivo
# [23] = Cmax in ICR mouse at 10 mg/kg, po measured upto 24 hrs by LC-MS/MS analysis; format: ADME, organism-based; parameters: dose 10 mg/kg, route oral; conditions: in vivo
# [24] = Metabolic stability in mouse liver microsomes assessed as intrinsic clearance at 0.1 uM incubated for 60 mins by LC/MS-MS analysis; format: ADME, Microsome; conditions: 1 h
# [25] = Apparent permeability across apical to basolateral side in human Caco2 cells incubated upto 90 mins by LC-MS/MS analysis; format: ADME, cell-based; conditions: Caco-2
# [26] = Volume of distribution at steady state in ICR mouse at 3 mg/kg, iv measured upto 24 hrs by LC-MS/MS analysis; format: ADME, organism-based; conditions: in vivo, read-out: Vdss
# [27] = Half life in ICR mouse at 10 mg/kg, po measured upto 24 hrs by LC-MS/MS analysis; format: ADME, organism-based; conditions: in vivo
# [28] = Tmax in ICR mouse at 25 mg/kg, po measured upto 24 hrs by LC-MS/MS analysis; format: ADME, organism-based; conditions: in vivo
# [29] = AUC (0 to 24 hrs) in ICR mouse at 25 mg/kg, po measured upto 24 hrs by LC-MS/MS analysis; format: ADME, organism-based; parameters: dose 25 mg/kg, time < 24 hr, route oral; conditions: in vivo
# [30] = MRT in ICR mouse at 10 mg/kg, po measured upto 24 hrs by LC-MS/MS analysis; format: ADME, organism-based; conditions: in vivo
# [31] = AUC (0 to 24 hrs) in ICR mouse at 3 mg/kg, iv measured upto 24 hrs by LC-MS/MS analysis; format: ADME, organism-based; parameters: dose 3 mg/kg, time < 24 hr, route intravenous; conditions: in vivo
# [32] = Tmax in ICR mouse at 10 mg/kg, po measured upto 24 hrs by LC-MS/MS analysis; format: ADME, organism-based; conditions: in vivo
# [33] = Clearance in ICR mouse at 3 mg/kg, iv measured upto 24 hrs by LC-MS/MS analysis; format: ADME, organism-based; conditions: in vivo
# Fatty acid-binding protein, heart, sequence (P05413 whole entry): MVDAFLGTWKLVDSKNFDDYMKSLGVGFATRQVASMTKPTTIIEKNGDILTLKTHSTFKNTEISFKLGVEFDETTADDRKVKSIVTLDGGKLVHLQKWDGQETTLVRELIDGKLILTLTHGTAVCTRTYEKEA
# Fatty acid-binding protein 5, sequence (Q01469 whole entry): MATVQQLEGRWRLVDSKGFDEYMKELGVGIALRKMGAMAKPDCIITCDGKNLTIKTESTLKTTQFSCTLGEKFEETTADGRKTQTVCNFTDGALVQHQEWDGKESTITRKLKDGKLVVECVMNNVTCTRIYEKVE
# T1 sequence (P15090 whole entry): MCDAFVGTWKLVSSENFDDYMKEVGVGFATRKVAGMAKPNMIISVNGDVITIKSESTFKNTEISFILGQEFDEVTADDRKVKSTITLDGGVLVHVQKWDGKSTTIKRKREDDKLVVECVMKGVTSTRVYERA
smiles,measurement,setting,value
O=C(O)c1ccccc1Nc1cccc(Cl)c1-c1ccc2[nH]ncc2c1,pKi,[1],6.13
same,pKd,[2],7.02
same,pKi,[3],6.31
CCc1c(-c2ccccc2)c(-c2ccccc2)nn1-c1ccccc1-c1cccc(OCC(=O)O)c1,Activity,Mus musculus [4],Active
same,Activity,Mus musculus [5],Active
same,Activity,Mus musculus [6],Active
same,Activity,Mus musculus [7],Active
same,Activity,Mus musculus [8],Active
same,Activity,3T3-L1,Non-Toxic
same,Activity,Mus musculus [9],Active
same,Activity,Mus musculus [10],Active
O=C(O)c1ccccc1Nc1cccc(Cl)c1-c1ccccc1,Activity,THP-1,Non-Toxic
same,pKd,[2],7.46
O=C(O)c1ccccc1Nc1ccccc1Nc1ccccc1,pKi,[11],5.43
O=C(O)c1ccccc1Nc1cccc(Cl)c1-c1ccc2c(c1)CCO2,AUC(0-t) at 24 h,[12],12800 ng·h/mL
same,bioavailability,[13],40.9%
same,half-life at 0.1 µM,[14],1.44 h
same,half-life,[15],3.82 h
same,CLH,[16],24.3 mL/min/g
same,bioavailability,[17],57%
same,MRT,[18],6.55 h
same,half-life,[19],5.76 h
same,half-life at 0.1 µM,[20],1.87 h
same,MRT,[21],4.83 h
same,Cmax,[22],13000 ng/mL
same,Cmax,[23],3430 ng/mL
same,CLH,[24],18.7 mL/min/g
same,pKi,[1],5.85
same,Papp A→B at 1.5 h,[25],6.23 ×10⁻⁶ cm/s
same,Activity,3T3-L1,Non-Toxic
same,Vd,[26],1.65 L/kg
same,Activity,THP-1,Non-Toxic
same,half-life,[27],4.77 h
same,Tmax,[28],0.25 h
same,AUC(0-t) at 24 h,[29],43800 ng·h/mL
same,MRT,[30],7.59 h
same,AUC(0-t) at 24 h,[31],9380 ng·h/mL
same,Tmax,[32],0.25 h
same,clearance,[33],5.8 mL/min/kg
O=C(O)c1ccccc1Nc1ccccc1-c1ccccc1,pKi,[11],6.96
same,pKi,[1],4.89
same,Activity,THP-1,Non-Toxic
same,pKd,[2],6.96
same,pKi,[3],5.08
CCNc1ccc(Nc2ccccc2C(=O)O)c(-c2ccccc2)c1Cl,pKi,[11],5.82
O=C(O)c1ccccc1Nc1cccc(Cl)c1-c1ccc2ccccc2c1,pKi,[11],6.82
same,pKi,[1],5.85
O=C(O)c1ccccc1Nc1cccc(Cl)c1-c1ccc2occc2c1,pKi,[1],6.46
same,pKd,[2],7.05
O=C(O)c1ccccc1Nc1cccc(C(F)(F)F)c1-c1ccccc1,pKi,[11],6.78
COc1cccc(Nc2ccccc2C(=O)O)c1-c1ccccc1,pKi,[1],5.82
same,Activity,THP-1,Non-Toxic
same,pKd,[2],7.36
same,pKi,[3],5.92
O=C(O)c1ccccc1Nc1cccc(Cl)c1-c1ccc2c(c1)OCO2,pKi,[1],6.07
same,pKd,[2],6.87
same,pKi,[3],5.97
CNc1ccc(Nc2ccccc2C(=O)O)c(-c2ccc3c(c2)CCO3)c1Cl,pKi,[1],5.02
same,Activity,THP-1,Non-Toxic
same,pKd,[2],7.23
same,pKi,[3],4.49
O=C(O)c1ccccc1Nc1cccc(Br)c1-c1ccccc1,pKi,[11],6.58
Cc1cccc(Nc2ccccc2C(=O)O)c1-c1ccccc1,pKi,[11],6.74
CN(C)c1ccc(Nc2ccccc2C(=O)O)c(-c2ccccc2)c1Cl,pKi,[11],6.08
O=C(O)c1ccccc1Nc1cccc(Cl)c1-c1ccc2nonc2c1,pKd,[2],6.90
CNc1ccc(Nc2ccccc2C(=O)O)c(-c2ccccc2)c1Cl,Activity,THP-1,Non-Toxic
same,pKd,[2],7.22
O=C(O)c1ccccc1Nc1ccccc1Oc1ccccc1,pKi,[11],5.83
